Laboratory results published in BindingDB's records for patent US20240174674 (Applied Pharmaceutical Science, 2024).

Experiments:
[1] = biological target: Proto-oncogene tyrosine-protein kinase receptor Ret [V804M] (Human, UniProt P07949, V804M); assay: HTRF Assay
[2] = biological target: Proto-oncogene tyrosine-protein kinase receptor Ret [G810R] (Human, UniProt P07949, G810R); assay: HTRF Assay
Sequence of Proto-oncogene tyrosine-protein kinase receptor Ret [G810R] (P07949 29-1114 G810R limits assumed): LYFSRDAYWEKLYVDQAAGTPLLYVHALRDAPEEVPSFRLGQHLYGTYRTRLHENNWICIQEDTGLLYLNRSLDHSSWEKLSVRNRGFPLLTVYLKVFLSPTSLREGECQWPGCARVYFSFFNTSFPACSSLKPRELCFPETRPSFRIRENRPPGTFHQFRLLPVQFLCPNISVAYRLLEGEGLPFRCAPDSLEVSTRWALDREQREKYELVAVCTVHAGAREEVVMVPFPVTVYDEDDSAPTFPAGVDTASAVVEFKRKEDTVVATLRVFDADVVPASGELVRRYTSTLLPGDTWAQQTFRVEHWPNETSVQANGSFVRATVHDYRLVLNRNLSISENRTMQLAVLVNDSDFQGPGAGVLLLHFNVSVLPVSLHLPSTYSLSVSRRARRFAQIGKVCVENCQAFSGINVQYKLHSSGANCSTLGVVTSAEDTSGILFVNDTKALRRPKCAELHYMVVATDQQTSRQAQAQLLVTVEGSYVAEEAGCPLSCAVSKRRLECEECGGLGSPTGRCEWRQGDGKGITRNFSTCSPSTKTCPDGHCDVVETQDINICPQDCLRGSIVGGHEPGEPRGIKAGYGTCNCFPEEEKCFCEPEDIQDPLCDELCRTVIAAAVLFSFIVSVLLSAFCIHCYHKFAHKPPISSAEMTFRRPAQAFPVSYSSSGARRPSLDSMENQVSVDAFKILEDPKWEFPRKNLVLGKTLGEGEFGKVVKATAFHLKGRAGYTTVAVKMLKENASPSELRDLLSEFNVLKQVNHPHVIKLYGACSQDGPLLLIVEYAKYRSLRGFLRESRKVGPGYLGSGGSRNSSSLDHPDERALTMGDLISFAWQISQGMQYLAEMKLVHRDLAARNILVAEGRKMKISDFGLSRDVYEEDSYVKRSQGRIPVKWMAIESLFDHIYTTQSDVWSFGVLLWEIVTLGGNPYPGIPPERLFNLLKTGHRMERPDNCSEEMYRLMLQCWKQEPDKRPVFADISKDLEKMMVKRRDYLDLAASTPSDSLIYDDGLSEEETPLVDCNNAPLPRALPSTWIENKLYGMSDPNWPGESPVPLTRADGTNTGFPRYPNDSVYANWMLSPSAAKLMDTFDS

Sequence of Proto-oncogene tyrosine-protein kinase receptor Ret [V804M] (P07949 29-1114 V804M limits assumed): as the sequence (P07949 29-1114 G810R limits assumed) above, with V776M, R782G counted along it

CCOc1cc(-c2ccc(N3CC[C@H](NC(=O)CC(C)C)[C@H](O)C3)nc2)c2c3cn[nH]c3nn2c1 [US20240174674, Compound 40]
IC50 [1]: 0.1 nM
IC50 [2]: 2.2 nM

CCOc1cc(-c2ccc(N3C[C@H]4C[C@@H](NC(=O)c5c(F)cccc5Cl)C[C@H]4C3)nc2)c2c3cn[nH]c3nn2c1 [US20240174674, Compound 176]
IC50 [2]: 12.1 nM

CCOc1cc(-c2ccc(N3CC[C@H](NC(=O)c4ncc(F)cc4Cl)[C@H](O)C3)nc2)c2c3cn[nH]c3nn2c1 [US20240174674, Compound 285]
IC50 [2]: 5 nM

CCOc1cc(-c2ccc(N3C[C@H](Oc4ccccn4)[C@@H](N)C3)nc2)c2c3cn[nH]c3nn2c1 [US20240174674, Compound 31]
IC50 [2]: 2.6 nM
